“Also recorded” adds a separate entry of the source.
What was measured:
[1] = system: human naïve NKTs (CD161^+CD3^+); assay: Cytokine/chemokine secretion by human naïve CD161+CD3+ NKTs co-cultured with autologous immature CD14+ DCs; type: cell-based; conditions: for induction of IL-3, GM-CSF and IL-15 / secretion of IFN-γ: 10 μg/ml, 18 hour culture; for secretion of IFN-γ: compared with α-GalCer; for IFN/IL-4 ratio (TH1/TH2 bias): normalized to DMSO control
naïve CD161^+/CD3^+ NKTs = assay: Human NKT TCR activation (phosphoproteins), glycolipid presented by HeLa, HeLa-CD1d or iDCs, 10 μg/ml; type: cell-based; conditions: for intracellular phospho-CD3ε / phospho-ERK1/2: 10 μg/ml
BALB/c mice [2] = assay: Mouse serum cytokines/chemokines after IV, SubQ or IM injection; type: in vivo; conditions: for serum IL-2, IL-12, MIP-1β and MCP-1: IV administration
BALB/c mice [3] = assay: Expansion/activation of mouse splenocyte subpopulations 72 h after injection; type: in vivo; conditions: for CD8^+/CD4^+ ratio: FIGS. 26H, 28H and 30H; for activation of B cells: IM route; for activation of B cells / total and mature DCs: compared with C1; for B cell expansion: FIGS. 26E, 28E and 30E; for total and mature DCs: FIGS. 26B, 28B and 30B
[4] = system: syngeneic lung cancer (TC1) cells; assay: Lung cancer model in mice (TC1, IV inoculation); type: in vivo, mouse; conditions: for anti-cancer efficacy compared with C1: IV administration
[5] = system: syngeneic breast cancer (4T1); assay: Breast cancer model in mice (4T1, SubQ inoculation); type: in vivo, mouse
tetanus toxoid (TT) = conditions: mouse, in vivo
[6] = system: extracellular domain of the M2 protein of the H1N1 subtype of the Influenza A virus; conditions: mouse, in vivo
[7] = system: FLU-A virus serotype H1N1 (WSN); assay: Influenza virus H1N1 (WSN) infection in BALB/c mice; conditions: mouse, in vivo
Sphingomonas capsulata = assay: Antibacterial efficacy in Sphingomonas capsulata infected mice; type: in vivo, mouse; conditions: for CFU numbers in liver: 100 μg/kg IP, 24 hour after bacterial infection
From the text: Sphingomonas capsulata is a common environmental bacterial strain that is found in many places such as the air and water. It can be easily identified on nutrient agar plates because of its yellow colony color. […] Since the antibacterial activities of glycolipid antigens are mediated through the activation of NKT cells by glycolipid bound-CD1-d molecules, evaluation of the antibacterial efficacies using the disease model of Sphingomonas capsulata infection will focus on the impact of the NKT mediated pathway that is activated by glycolipid bindings. Six to eight week old female C57BL/6 mice were injected IP with Sphingomonas capsulate cells. […] Twenty-four hours after bacterial infection, livers were removed from mice and homogenized. Colony formation units (CFU) of Sphingomonas capsulate in liver homogenates were determined by plating diluted samples on nutrient plates. Colonies were counted after incubation for 48 hours at 37° C. […] To confirm the antibacterial efficacies of these α-GalCer analogs, another study was conducted to repeat the study by treating infected mice with 50 μg/kg in the same disease model. […] Six to eight week old female C57BL/6 mice were injected IP with 5×10^8 Sphingomonas capsulate cells. Mice were grouped into treatment and control groups with 4-6 mice per group. Four hours after the infection, mice in the treatment group were injected IP with testing α-GalCer analogs at 50 or 100 μg/kg, and the control group mice were injected with same volumes of PBS. Twenty-four hours after bacterial infection, mice from all groups were sacrificed. Livers were removed from mice and homogenized in 0.9% NaCl, 0.02% Tween 80 using tissue homogenizers. Colony formation units (CFU) of Sphingomonas capsulate in liver homogenates were determined by plating diluted samples on nutrient plates. Colonies were counted after incubation for 48 hours at 37° C.

[8] = system: primary naïve human iNKTs; assay: Cytokine production by primary naïve human iNKTs cultured with autologous immature DCs; type: cell-based; conditions: compared with C11
C57BL/6 mice = assay: Expansion of NKT subsets in spleens of C57BL/6 mice; type: in vivo; conditions: C57BL/6 Wt, 72 h post IV injection, 0.1 μg per mouse
[9] = system: H5 of avian influenza viruses (pHA); type: in vivo, mouse; conditions: mouse, in vivo
[10] = system: FLU-A virus serotype H1N1 (WSN); assay: Cytopathetic effect / virus titer in MDCK cells infected with H1N1 (WSN); type: cell-based
Method: FIG. 60(A-B) show the cytopathetic effect (CPE) of Madin-Darby canine kidney (MDCK) cells in vitro. MDCK cells were pretreated with vehicle, α-GalCer or one of the α-GalCer analogs C13, C14 or C16 at 10 μg/ml for four hours, followed by infection with FLU-A virus serotype H1N1 (WSN) at 10TCID50.
BALB/c mice were treated via intranasal route with control, α-GalCer (C1) or the α-GalCer analogs C13, C14 or C16 at one hour prior to virus challenge with H1N1 (WSN). […] In general, certain α-GalCer analogs may exert direct anti-viral effects, or act indirectly via immune stimulation. […] MDCK cells were pretreated with vehicle, α-GalCer or one of the α-GalCer analogs C13, C14 or C16 at 10 μg/ml for four hours, followed by infection with FLU-A virus serotype H1N1 (WSN) at 10TCID50.

CCCCCCCCCCCCCC[C@@H](O)[C@@H](O)[C@H](CO[C@H]1O[C@H](CO)[C@H](O)[C@H](O)[C@H]1O)NC(=O)CCCCCCCc1ccccc1 [C11]
induction of IL-3, GM-CSF and IL-15 [1]: greater induction of IL-3, granulocyte/macrophage colony-stimulating factor (GM-CSF), and IL-15 | secretion of IFN-γ [1]: significantly greater secretion of IFN-γ than α-GalCer | TCR activation (naïve CD161^+/CD3^+ NKTs; CD1d-dependent, HeLa-CD1d or DCs): stronger in TCR activation than compounds C1 and C17 | intracellular phospho-CD3ε (naïve CD161^+/CD3^+ NKTs; presented by DCs): 21.3 folds | intracellular phospho-CD3ε (naïve CD161^+/CD3^+ NKTs; presented by HeLa-CD1d cells): 10 folds of control | phospho-ERK1/2 (naïve CD161^+/CD3^+ NKTs; with DCs): 48.3 folds | phospho-ERK1/2 (naïve CD161^+/CD3^+ NKTs; with HeLa-CD1d cells): 14.6 folds increase | serum IL-2, IL-12, MIP-1β and MCP-1 (BALB/c mice [2]): striking rises in IL-2, IL-12, MIP-1β and MCP-1 | CD8^+/CD4^+ ratio (BALB/c mice [3]): more potent than C1 | activation of B cells (BALB/c mice [3]): stronger activations of B cells than C1 | CD8^+ T cells (BALB/c mice [3]; SubQ route): more activity than C1 | B cell expansion/activation (BALB/c mice [3]; mouse, in vivo): significant activities | NK and NKT expansion/activation (BALB/c mice [3]; mouse, in vivo): comparable activities as C1 | tumor nodules on the lung surface ([4]; sacrificed on day 16 after tumor inoculation): reduced number of tumor nodules on the lung surface | tumor size ([5]; 16 days after treatment): reduced tumor size | tumor growth and survival compared to control ([5]; SubQ delivery): able to suppress tumor growth and prolong survival as compared to control | antibody response relative to conventional vaccine (tetanus toxoid (TT)): ~2 fold | durability of adjuvant effects (tetanus toxoid (TT)): remarkably durable | level of antibody after delayed boost compared with TT+Alum (tetanus toxoid (TT)): twice as high as those given TT+Alum | adjuvant effect (comparison) [6]: best adjuvant effect which was equivalent to complete Freund's adjuvant (CFA) | titer relative to C1 [6]: 3 fold | survival [7]: significantly enhanced survival | antibacterial efficacies (CFU in liver) (Sphingomonas capsulata; 50 μg/kg): significant in comparison to the untreated group | difference in the values of the CFU per gram liver among efficacious groups (Sphingomonas capsulata; 50 μg/kg): not statistically significant | CFU numbers in liver (Sphingomonas capsulata): significantly lower than the control group

CCCCCCCCCCCCCCCCCCCCCCCCCC(=O)N[C@@H](CS[C@H]1O[C@H](CO)[C@H](O)[C@H](O)[C@H]1O)[C@H](O)[C@H](O)CCCCCCCCCCCCCC [C4]
IFN/IL-4 ratio (TH1/TH2 bias) [1]: more TH2-biased

CCCCCCCCCCCCCC[C@@H](O)[C@@H](O)[C@H](CO[C@H]1O[C@H](CO)[C@H](O)[C@H](O)[C@H]1O)NC(=O)CCCCCCCCCCc1ccc(-c2ccccc2)cc1 [C26]
IFN-γ/IL4 ratio [8]: higher IFN-γ/IL4 ratio | IL-2 [8]: higher levels of IL-2 | total number of NKTs and its two subtypes NKT1 and NKT2 (C57BL/6 mice): increase of total number of NKTs | adjuvant activities in enhancing the anti-HAc antibody titer [9]: better adjuvant activities than the others in enhancing the antibody titer | anti-HA-specific IgG antibody [9]: enhanced | effectiveness as adjuvant [9]: particularly effective as adjuvants

CCCCCCCCCCCCCC[C@@H](O)[C@@H](O)[C@H](CO[C@H]1O[C@H](CO)[C@H](O)[C@H](O)[C@H]1O)NC(=O)CCCCCc1ccccc1 [C10]
induction of IL-3, GM-CSF and IL-15 [1]: greater induction of IL-3, granulocyte/macrophage colony-stimulating factor (GM-CSF), and IL-15 | B cell expansion (BALB/c mice [3]): more active than C1 | anti-cancer efficacy compared with C1 [4]: significantly greater anti-cancer efficacy than C1

CCCCCCCCCCCCCC[C@@H](O)[C@@H](O)[C@H](CO[C@H]1O[C@H](CO)[C@H](O)[C@H](O)[C@H]1O)NC(=O)CCCCCCCCCCc1ccccc1 [C16]
induction of IL-3, GM-CSF and IL-15 [1]: greater induction of IL-3, granulocyte/macrophage colony-stimulating factor (GM-CSF), and IL-15 | secretion of IFN-γ [1]: significantly greater secretion of IFN-γ than α-GalCer | IFN-γ/IL-4 ratio (TH1/TH2 bias) (BALB/c mice [2]; 2 hours, IV route, compared with C1): less TH2 responses than C1 | serum IL-2, IL-12, MIP-1β and MCP-1 (BALB/c mice [2]): striking rises in IL-2, IL-12, MIP-1β and MCP-1 | serum level of IFN-γ (BALB/c mice [2]; IV route, over 72 hours): level of activity close to that of C1 | total and mature DCs (BALB/c mice [3]): significantly greater rises in total and mature DCs than C1 | B cell expansion (BALB/c mice [3]): most effective in B cell expansion | CD8^+/CD4^+ ratio (BALB/c mice [3]): more potent than C1 | activation of B cells (BALB/c mice [3]): stronger activations of B cells than C1 | expansion of splenocytes (BALB/c mice [3]; IV administration, 72 hours): greater potency than C1 | CD4^+ T cells (BALB/c mice [3]; SubQ route): more active over control | CD8^+ T cells (BALB/c mice [3]; SubQ route): more activity than C1 | CD8^+ T cell expansion/activation (BALB/c mice [3]; mouse, in vivo): comparable activities as C1; also recorded: more active than C1 | NK and NKT expansion/activation (BALB/c mice [3]; mouse, in vivo): comparable activities as C1 | expansion/activation of NKs and NKTs (BALB/c mice [3]; mouse, in vivo): best capacity for expansion/activation of NKs and NKTs | anti-cancer efficacy compared with C1 [4]: significantly greater anti-cancer efficacy than C1 | effects on survival compared with C1 ([5]; SubQ delivery): did not differ significantly from that of C1 | suppression of tumor size compared with C1 ([5]; SubQ delivery): significantly greater suppression of tumor size than C1 | tumor growth and survival compared to control ([5]; SubQ delivery): able to suppress tumor growth and prolong survival as compared to control | cumulative proportion of survival ([7]; ip): prolonged survival | entry/replication of H1N1 virus (virus titer) [10]: slight inhibition of the entry/replication of H1N1 virus in vitro | antibacterial efficacies (CFU in liver) (Sphingomonas capsulata; 50 μg/kg): significant in comparison to the untreated group | CFU numbers in liver (Sphingomonas capsulata): significantly lower than the control group

CCCCCCCCCCCCCCCCCCCCCCCCCC(=O)N[C@@H](CO[C@H]1O[C@H](CO)[C@H](O)[C@H](O)[C@H]1O)[C@H](O)[C@H](O)CCCCc1ccccc1 [C12]
IFN/IL-4 ratio (TH1/TH2 bias) [1]: more TH1-biased | total and mature DCs (BALB/c mice [3]): significantly greater rises in total and mature DCs than C1 | expansion/activation of NKs and NKTs (BALB/c mice [3]; FIGS. 26C-D, 28C-D and 30C-D): best capacity for expansion/activation of NKs and NKTs | CD8^+ T cell expansion/activation (BALB/c mice [3]; FIGS. 26F, 28F and 30F): more active than C1 | activation of B cells (BALB/c mice [3]): stronger activations of B cells than C1 | anti-cancer efficacy compared with C1 [4]: significantly greater anti-cancer efficacy than C1

From patent US20080260774A1, “Alpha-galactosyl ceramide analogs and their use as immunotherapies” (priority 2007, published 2008)
